The results in this text go back to ChEMBL document CHEMBL3045855, “ANTIPYRETIC, ANTINOCICEPTIVE AND ANTI-INFLAMMATORY ACTIVITIES OF CERTAIN -OXOBUTANOIC ACID DERIVATIVES” (2005).

What all share (type): functional
Experiment [1] deals with Mus musculus. Kind of experiment: Antinociceptive activity in Mus musculus Swiss (mouse) assessed as protection against acetic acid-induced writhing at 25 mg/kg, po administered 1 hr prior challenge measured for 20 min following acetic acid treatment relative to control.
Experiment [2] deals with Rattus norvegicus. The experiment can be described thus: Anti-inflammatory in Rattus norvegicus Sprague-Dawley (rat) subcutaneously implanted with cotton pellets assessed as inhibition of granuloma growth at 25 mg/kg, po measured after 7 days. Particulars: 168 h.
Experiment [3] concerns Rattus norvegicus. Kind of experiment: Anti-inflammatory activity in Rattus norvegicus Sprague-Dawley (rat) assessed as inhibition of carrageenan-induced paw edema at 25 mg/kg, po for 7 days challenged with carrageenan 1 hr post last dose on day 7 measured after 2 hr after challenge.
Experiment [4] has as its system Mus musculus. The experiment can be described thus: Antinociceptive activity in Mus musculus Swiss (mouse) assessed as protection against acetic acid-induced writhing at 50 mg/kg, po administered 1 hr prior challenge measured for 20 min following acetic acid treatment relative to control.
Experiment [5] has as its system Rattus norvegicus. The experiment can be described thus: Antipyretic activity in yeast-fevered Rattus norvegicus Sprague-Dawley (rat) assessed as reduction in rectal temperature at 50 mg/kg, po administered 17 hr post challenge measured after 120 min. On the set-up: scale not given: the % may be the effect or the level left.
In experiment [6] the test system is Rattus norvegicus. Kind of experiment: Antipyretic activity in yeast-fevered Rattus norvegicus Sprague-Dawley (rat) assessed as reduction in rectal temperature at 50 mg/kg, po administered 17 hr post challenge measured after 90 min. On the set-up: scale not given: the % may be the effect or the level left.
Experiment [7] has as its system Rattus norvegicus. Kind of experiment: Antipyretic activity in yeast-fevered Rattus norvegicus Sprague-Dawley (rat) assessed as reduction in rectal temperature at 50 mg/kg, po administered 17 hr post challenge measured after 60 min. On the set-up: scale not given: the % may be the effect or the level left.
In experiment [8] the test system is Rattus norvegicus. The experiment can be described thus: Antipyretic activity in yeast-fevered Rattus norvegicus Sprague-Dawley (rat) assessed as reduction in rectal temperature at 50 mg/kg, po administered 17 hr post challenge measured after 30 min. On the set-up: scale not given: the % may be the effect or the level left.
In experiment [9] the test system is Rattus norvegicus. Kind of experiment: Anti-inflammatory in Rattus norvegicus Sprague-Dawley (rat) subcutaneously implanted with cotton pellets assessed as inhibition of granuloma growth at 50 mg/kg, po measured after 7 days. Particulars: 168 h.
For experiment [10], the system named is Rattus norvegicus. The experiment can be described thus: Anti-inflammatory activity in Rattus norvegicus Sprague-Dawley (rat) assessed as inhibition of carrageenan-induced paw edema at 100 mg/kg, po for 7 days challenged with carrageenan 1 hr post last dose on day 7 measured after 2 hr after challenge.
Experiment [11] concerns Rattus norvegicus. The experiment can be described thus: Anti-inflammatory activity in Rattus norvegicus Sprague-Dawley (rat) assessed as inhibition of carrageenan-induced paw edema at 50 mg/kg, po for 7 days challenged with carrageenan 1 hr post last dose on day 7 measured after 2 hr after challenge.
The subject of experiment [12] is Rattus norvegicus. Kind of experiment: Antipyretic activity in yeast-fevered Rattus norvegicus Sprague-Dawley (rat) assessed as reduction in rectal temperature at 100 mg/kg, po administered 17 hr post challenge measured after 120 min. Details: scale not given: the % may be the effect or the level left.
Experiment [13] has as its system Rattus norvegicus. The experiment can be described thus: Antipyretic activity in yeast-fevered Rattus norvegicus Sprague-Dawley (rat) assessed as reduction in rectal temperature at 100 mg/kg, po administered 17 hr post challenge measured after 90 min. Details: scale not given: the % may be the effect or the level left.
Experiment [14] relates to Rattus norvegicus. Kind of experiment: Antipyretic activity in yeast-fevered Rattus norvegicus Sprague-Dawley (rat) assessed as reduction in rectal temperature at 100 mg/kg, po administered 17 hr post challenge measured after 60 min. Details: scale not given: the % may be the effect or the level left.
Experiment [15] deals with Rattus norvegicus. The experiment can be described thus: Antipyretic activity in yeast-fevered Rattus norvegicus Sprague-Dawley (rat) assessed as reduction in rectal temperature at 100 mg/kg, po administered 17 hr post challenge measured after 30 min. On the set-up: scale not given: the % may be the effect or the level left.

On to `O=C([O-])Cc1ccccc1Nc1c(Cl)cccc1Cl.[Na+]` [DICLOFENAC SODIUM], for which the Activity in experiment [1] is 72.58%. Moreover, the inhibition in vivo at 25 mg/kg in [2] came to 45.4%; in [3], 47.6%.

For `NC(=O)c1cc(C(=O)CCC(=O)O)ccc1O`, the Activity in experiment [4] is 59.24%; in [5], 2.44%; in experiment [6], 2.71%; in experiment [7], 2.11%; in [8] it was 0.86%. The values for the inhibition in vivo at 50 mg/kg in [9] and in experiment [11] were 34.4% and 13.6%, respectively. For the same compound, the inhibition in vivo at 100 mg/kg in experiment [10] was 27.5%.

Regarding `CC(=O)Nc1ccc(O)cc1` [ACETAMINOPHEN], the Activity is reported as 6.06% in experiment [12], 5.47% in experiment [13], 5.14% in experiment [14] and 4.18% in [15].

On to `CC(=O)c1cc(C(=O)CCC(=O)O)ccc1O`, for which the Activity is 61.47% in experiment [4]; 2.52% in experiment [5]; 2.63% in [6]; 1.8% in experiment [7]; 1.58% in experiment [8]. In addition, the inhibition in vivo at 50 mg/kg came to 5.2% in experiment [9] and 4.11% in experiment [11]. In addition, the inhibition in vivo at 100 mg/kg in experiment [10] turned out to be 22.4%.

`O=C(O)CCC(=O)/C=C/c1ccc2c(c1)OCO2`: the Activity in experiment [4] turned out to be 69.65%; in [5] it was 2.49%; in experiment [6], 3.41%; in experiment [7] it was 4.08%; in experiment [8] it was 0.99%. In addition, the inhibition in vivo at 50 mg/kg turned out to be 53.3% in [9] and 57.5% in [11]. The inhibition in vivo at 100 mg/kg in experiment [10] was 68.8%.
